Data published in patent publication US8309718B2, “4-pyrazolyl-N-arylpyrimidin-2-amines and 4-pyrazolyl-N-heteroarylpyrimidin-2-amines as janus kinase inhibitors” (Incyte Corporation, priority 2007, dated 2012).
pIC50: −log10 of the molar value.

Target: T1, human JAK2 (Homo sapiens, UniProt O60674)
T1 construct: JAK2 (a.a. 828-1132); His tag (N); made in house; host or cells: insect cells (baculovirus)
Assay: In vitro JAK kinase assay (HTRF, phosphorylation of biotinylated peptide)
Format: biochemical
Conditions: catalytic domain a.a. 828-1132, 30 μM ATP, 500 nM peptide, room temperature 1 hr; read-out: JAK-2 IC50
Procedure, shortened: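 His-tagged human JAK2 catalytic domain (a.a. 828-1132), baculovirus/insect-cell expressed; phosphorylation of 500 nM biotinylated peptide at 30 μM ATP in 50 mM Tris pH 7.8, 100 mM NaCl, 5 mM DTT, 0.01% BSA. 1 h at room temperature, EDTA stop, HTRF read (Eu-Py20/SA-APC); IC50.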

T1 sequence (O60674 828-1132): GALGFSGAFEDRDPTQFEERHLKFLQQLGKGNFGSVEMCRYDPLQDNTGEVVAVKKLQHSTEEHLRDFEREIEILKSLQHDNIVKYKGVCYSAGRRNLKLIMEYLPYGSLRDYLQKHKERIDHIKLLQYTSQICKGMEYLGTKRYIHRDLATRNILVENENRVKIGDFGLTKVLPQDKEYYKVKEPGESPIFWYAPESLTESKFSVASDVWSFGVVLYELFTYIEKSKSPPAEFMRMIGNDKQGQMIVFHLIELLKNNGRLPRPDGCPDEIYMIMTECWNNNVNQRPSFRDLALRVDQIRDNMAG

pIC50	Structure (SMILES)
> 7.00	CCN(CC)c1ccc(Nc2ncc(C)c(-c3cnn(C(CC#N)C4CCCC4)c3)n2)cc1 (racemic) [Example 79, 3-cyclopentyl-3-(4-(2-(4-(diethylamino)phenylamino)-5-methylpyrimidin-4-yl)-1H-pyrazol-1-yl)propanenitrile]
> 7.00	CCN(CCCO)c1ccc(Nc2ncc(C)c(-c3cnn(C(CC#N)C4CCCC4)c3)n2)cc1 (racemic) [Example 80, 3-cyclopentyl-3-(4-(2-(4-(ethyl(3-hydroxypropyl)amino)phenylamino)-5-methylpyrimidin-4-yl)-1H-pyrazol-1-yl)propanenitrile]
> 7.00	Cc1cnc(Nc2ccc(C(=O)O)cc2)nc1-c1cnn(C(CC#N)C2CCCC2)c1 (racemic) [Example 81, 4-(4-(1-(2-cyano-1-cyclopentylethyl)-1H-pyrazol-4-yl)-5-methylpyrimidin-2-ylamino)benzoic acid]
> 7.00	Cc1cnc(Nc2ccc([N+](=O)[O-])cc2)nc1-c1cnn(C(CC#N)C2CCCC2)c1 (racemic) [Example 82, 3-cyclopentyl-3-(4-(5-methyl-2-(4-nitrophenylamino)pyrimidin-4-yl)-1H-pyrazol-1-yl)propanenitrile]
> 7.00	Cc1cnc(Nc2ccc(C(=O)NCCO)cc2)nc1-c1cnn(C(CC#N)C2CCCC2)c1 (racemic) [Example 83, 4-(4-(1-(2-cyano-1-cyclopentylethyl)-1H-pyrazol-4-yl)-5-methylpyrimidin-2-ylamino)-N-(2-hydroxyethyl)benzamide]
> 7.00	Cc1cnc(Nc2cccc(-c3cnco3)c2)nc1-c1cnn(C(CC#N)C2CCCC2)c1 (racemic) [Example 84, 3-cyclopentyl-3-(4-(5-methyl-2-(3-(oxazol-5-yl)phenylamino)pyrimidin-4-yl)-1H-pyrazol-1-yl)propanenitrile]
> 7.00	Cc1cnc(Nc2ccc(N)cc2)nc1-c1cnn(C(CC#N)C2CCCC2)c1 (racemic) [Example 85, 3-(4-(2-(4-aminophenylamino)-5-methylpyrimidin-4-yl)-1H-pyrazol-1-yl)-3-cyclopentylpropanenitrile]
> 7.00	CNC(=O)c1ccc(Nc2ncc(C)c(-c3cnn(C(CC#N)C4CCCC4)c3)n2)cc1 (racemic) [Example 86, 4-(4-(1-(2-cyano-1-cyclopentylethyl)-1H-pyrazol-4-yl)-5-methylpyrimidin-2-ylamino)-N-methylbenzamide]
> 7.00	Cc1cnc(Nc2ccc(C(=O)N3CCC(O)CC3)cc2)nc1-c1cnn(C(CC#N)C2CCCC2)c1 (racemic) [Example 88, 3-cyclopentyl-3-(4-(2-(4-(4-hydroxypiperidine-1-carbonyl)phenylamino)-5-methylpyrimidin-4-yl)-1H-pyrazol-1-yl)propanenitrile]
> 7.00	Cc1cnc(Nc2ccc(NS(C)(=O)=O)cc2)nc1-c1cnn(C(CC#N)C2CCCC2)c1 (racemic) [Example 89, N-(4-(4-(1-(2-cyano-1-cyclopentylethyl)-1H-pyrazol-4-yl)-5-methylpyrimidin-2-ylamino)phenyl)methanesulfonamide]
> 7.00	COC(=O)Nc1ccc(Nc2ncc(C)c(-c3cnn(C(CC#N)C4CCCC4)c3)n2)cc1 (racemic) [Example 90, Methyl 4-(4-(1-(2-cyano-1-cyclopentylethyl)-1H-pyrazol-4-yl)-5-methylpyrimidin-2-ylamino)phenylcarbamate]
> 7.00	Cc1cnc(Nc2ccc(NC(=O)CN3CCCC3)cc2)nc1-c1cnn(C(CC#N)C2CCCC2)c1 (racemic) [Example 91, N-(4-(4-(1-(2-cyano-1-cyclopentylethyl)-1H-pyrazol-4-yl)-5-methylpyrimidin-2-ylamino)phenyl)-2-(pyrrolidin-1-yl)acetamide]
< 7.00	N#CCC(CC1CCNCC1)n1cc(-c2ccnc(Nc3ccc(N4CCOCC4=O)cc3)n2)cn1 (racemic) [Example 92, 3-(4-(2-(4-(3-oxomorpholino)phenylamino)pyrimidin-4-yl)-1H-pyrazol-1-yl)-4-(piperidin-4-yl)butanenitrile]
> 7.00	CS(=O)(=O)N1CCC(CC(CC#N)n2cc(-c3ccnc(Nc4ccc(N5CCOCC5=O)cc4)n3)cn2)CC1 (racemic) [Example 95, 4-(1-(methylsulfonyl)piperidin-4-yl)-3-(4-(2-(4-(3-oxomorpholino)phenylamino)pyrimidin-4-yl)-1H-pyrazol-1-yl)butanenitrile]

Second part, the molecule before the results:

Structure (SMILES)	pIC50
Cc1cnc(Nc2ccc(-n3cccn3)cc2)nc1-c1cnn(C(CC#N)CC2CCN(S(=O)(=O)c3ccn(C)n3)CC2)c1 (racemic) [Example 63, 3-(4-(2-(4-(1H-pyrazol-1-yl)phenylamino)-5-methylpyrimidin-4-yl)-1H-pyrazol-1-yl)-4-(1-(1-methyl-1H-pyrazol-3-ylsulfonyl)piperidin-4-yl)butanenitrile]	> 7.00
Cc1cnc(Nc2ccc(-n3cccn3)cc2)nc1-c1cnn(C(CC#N)CC2CCN(C(=O)c3ccc(F)cc3F)CC2)c1 (racemic) [Example 64, 3-(4-(2-(4-(1H-pyrazol-1-yl)phenylamino)-5-methylpyrimidin-4-yl)-1H-pyrazol-1-yl)-4-(1-(2,4-difluorobenzoyl)piperidin-4-yl)butanenitrile]	> 7.00
Cc1cnc(Nc2ccccc2)nc1-c1cnn(C(CC#N)CC2CCN(S(=O)(=O)c3ccn(C)n3)CC2)c1 (racemic) [Example 65, 4-(1-(1-methyl-1H-pyrazol-3-ylsulfonyl)piperidin-4-yl)-3-(4-(5-methyl-2-(phenylamino)pyrimidin-4-yl)-1H-pyrazol-1-yl)butanenitrile]	> 7.00
Cc1cnc(Nc2ccccc2)nc1-c1cnn(C(CC#N)CC2CCN(C(=O)c3ccc(F)cc3F)CC2)c1 (racemic) [Example 66, 4-(1-(2,4-difluorobenzoyl)piperidin-4-yl)-3-(4-(5-methyl-2-(phenylamino)pyrimidin-4-yl)-1H-pyrazol-1-yl)butanenitrile]	> 7.00
Cc1cnc(Nc2ccc(C(=O)N(C)C)cc2)nc1-c1cnn(C(CC#N)CC2CCN(S(=O)(=O)c3ccn(C)n3)CC2)c1 (racemic) [Example 67, 4-(4-(1-(1-cyano-3-(1-(1-methyl-1H-pyrazol-3-ylsulfonyl)piperidin-4-yl)propan-2-yl)-1H-pyrazol-4-yl)-5-methylpyrimidin-2-ylamino)-N,N-dimethylbenzamide]	> 7.00
Cc1cnc(Nc2ccc(C(=O)N(C)C)cc2)nc1-c1cnn(C(CC#N)CC2CCN(C(=O)c3ccc(F)cc3F)CC2)c1 (racemic) [Example 68, 4-(4-(1-(1-cyano-3-(1-(2,4-difluorobenzoyl)piperidin-4-yl)propan-2-yl)-1H-pyrazol-4-yl)-5-methylpyrimidin-2-ylamino)-N,N-dimethylbenzamide]	> 7.00
CC(=O)Nc1ccc(Nc2ncc(C)c(-c3cnn(C(CC#N)CC4CCN(C(=O)c5ccc(F)cc5F)CC4)c3)n2)cc1 (racemic) [Example 69, N-(4-(4-(1-(1-cyano-3-(1-(2,4-difluorobenzoyl)piperidin-4-yl)propan-2-yl)-1H-pyrazol-4-yl)-5-methylpyrimidin-2-ylamino)phenyl)acetamide]	> 7.00
Cc1cnc(Nc2ccc(C(N)=O)cc2)nc1-c1cnn(C(CC#N)C2CCCC2)c1 (racemic) [Example 70, 4-(4-(1-(2-cyano-1-cyclopentylethyl)-1H-pyrazol-4-yl)-5-methylpyrimidin-2-ylamino)benzamide]	> 7.00
Cc1cnc(Nc2ccc(-n3cccn3)cc2)nc1-c1cnn(C(CC#N)C2CCCC2)c1 (racemic) [Example 71, 3-(4-(2-(4-(1H-pyrazol-1-yl)phenylamino)-5-methylpyrimidin-4-yl)-1H-pyrazol-1-yl)-3-cyclopentylpropanenitrile]	> 7.00
Cc1cnc(Nc2ccc(N3CCOCC3)cc2)nc1-c1cnn(C(CC#N)C2CCCC2)c1 (racemic) [Example 72, 3-cyclopentyl-3-(4-(5-methyl-2-(4-morpholinophenylamino)pyrimidin-4-yl)-1H-pyrazol-1-yl)propanenitrile]	> 7.00
Cc1cnc(Nc2ccccc2)nc1-c1cnn(C(CC#N)C2CCCC2)c1 (racemic) [Example 73, 3-cyclopentyl-3-(4-(5-methyl-2-(phenylamino)pyrimidin-4-yl)-1H-pyrazol-1-yl)propanenitrile]	> 7.00
Cc1cnc(Nc2ccc(-c3cnco3)cc2)nc1-c1cnn(C(CC#N)C2CCCC2)c1 (racemic) [Example 74, 3-cyclopentyl-3-(4-(5-methyl-2-(4-(oxazol-5-yl)phenylamino)pyrimidin-4-yl)-1H-pyrazol-1-yl)propanenitrile]	> 7.00
COc1ccc(Nc2ncc(C)c(-c3cnn(C(CC#N)C4CCCC4)c3)n2)cc1 (racemic) [Example 75, 3-cyclopentyl-3-(4-(2-(4-methoxyphenylamino)-5-methylpyrimidin-4-yl)-1H-pyrazol-1-yl)propanenitrile]	> 7.00
CC(=O)Nc1ccc(Nc2ncc(C)c(-c3cnn(C(CC#N)C4CCCC4)c3)n2)cc1 (racemic) [Example 76, N-(4-(4-(1-(2-cyano-1-cyclopentylethyl)-1H-pyrazol-4-yl)-5-methylpyrimidin-2-ylamino)phenyl)acetamide]	> 7.00
Cc1cnc(Nc2ccc(C(=O)N(C)C)cc2)nc1-c1cnn(C(CC#N)C2CCCC2)c1 (racemic) [Example 77, 4-(4-(1-(2-cyano-1-cyclopentylethyl)-1H-pyrazol-4-yl)-5-methylpyrimidin-2-ylamino)-N,N-dimethylbenzamide]	> 7.00
Cc1cnc(Nc2ccc(N3CCNCC3)cc2)nc1-c1cnn(C(CC#N)C2CCCC2)c1 (racemic) [Example 78, 3-cyclopentyl-3-(4-(5-methyl-2-(4-(piperazin-1-yl)phenylamino)pyrimidin-4-yl)-1H-pyrazol-1-yl)propanenitrile]	> 7.00
